Data as given in US20060035901A1, “Methotrexate derivatives useful for treating cancer and arthritis” (Serenex, Inc., priority 2004, published 2006).

Key:
Format in all cases: binding
[1] = target: T1, pyruvate carboxylase (PYC) (Sus scrofa, UniProt A0A8W4F6F0); experiment: Elution of PYC from ATP-Sepharose column loaded with porcine liver proteome, IC50 estimate; details: estimated from percent of protein eluted from ATP-Sepharose column, read-out: Approximate IC50 for PYC
T1 construct: a porcine liver proteome was run over an ATP-Sepharose™ column; from tissue; host or cells: porcine liver
T1 sequence (A0A8W4F6F0 1-1157): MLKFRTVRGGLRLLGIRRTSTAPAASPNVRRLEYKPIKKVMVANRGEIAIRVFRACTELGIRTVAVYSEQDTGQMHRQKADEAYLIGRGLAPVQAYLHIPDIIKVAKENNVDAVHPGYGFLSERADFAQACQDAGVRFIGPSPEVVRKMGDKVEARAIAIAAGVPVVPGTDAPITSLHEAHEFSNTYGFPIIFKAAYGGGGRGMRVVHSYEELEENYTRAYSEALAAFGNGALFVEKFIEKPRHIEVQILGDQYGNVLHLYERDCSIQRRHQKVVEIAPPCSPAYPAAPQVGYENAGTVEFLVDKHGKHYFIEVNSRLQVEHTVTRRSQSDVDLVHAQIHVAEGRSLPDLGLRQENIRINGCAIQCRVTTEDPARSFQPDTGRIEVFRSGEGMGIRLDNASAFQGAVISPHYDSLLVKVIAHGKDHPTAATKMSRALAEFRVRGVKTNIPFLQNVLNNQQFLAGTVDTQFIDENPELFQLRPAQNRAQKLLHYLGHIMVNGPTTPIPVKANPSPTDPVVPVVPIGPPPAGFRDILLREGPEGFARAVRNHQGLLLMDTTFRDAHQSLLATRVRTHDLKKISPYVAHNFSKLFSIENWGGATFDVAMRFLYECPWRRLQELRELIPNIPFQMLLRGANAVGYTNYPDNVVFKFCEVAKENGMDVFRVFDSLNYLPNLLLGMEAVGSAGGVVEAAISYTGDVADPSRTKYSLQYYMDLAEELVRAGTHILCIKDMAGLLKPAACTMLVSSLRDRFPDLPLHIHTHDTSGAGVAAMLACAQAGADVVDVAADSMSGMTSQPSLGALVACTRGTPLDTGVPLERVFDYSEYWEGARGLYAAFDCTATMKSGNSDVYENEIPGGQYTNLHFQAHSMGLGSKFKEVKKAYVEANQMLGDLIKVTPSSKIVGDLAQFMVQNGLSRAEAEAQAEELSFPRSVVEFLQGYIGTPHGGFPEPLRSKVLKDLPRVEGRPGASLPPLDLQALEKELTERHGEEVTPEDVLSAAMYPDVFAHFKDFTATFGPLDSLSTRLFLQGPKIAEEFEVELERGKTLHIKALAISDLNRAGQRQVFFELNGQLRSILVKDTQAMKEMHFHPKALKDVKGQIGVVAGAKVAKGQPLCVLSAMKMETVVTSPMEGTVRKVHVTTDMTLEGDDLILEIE
Description: Similar experiments were carried out to compare the IC50 values for PYC, PCCA, and PCCB. In these trials, a porcine liver proteome was run over an ATP-Sepharose™ column to bind all purine-binding proteins. The ATP-Sepharose™ column was washed several times, and then eluted with the compound of Formula III at concentrations of 1 μM, 5 μM, 10 μM, 50 μM, 100 μM, and 500 μM to identify proteins that bound to this compound. (The amount of protein eluted at the higher concentration ranges plateaued, thus confirming that the entire fraction of bound protein had been eluted.) The eluted fractions were run on a 1-dimensional SDS polyacrylamide gel.
(§1) Gels were stained with a fluorescent stain such as sypro ruby (a highly sensitive fluorescent protein stain that can readily detect less than 1 fmol of total protein, i.e., less than 0.04 ng for a 40 kDa protein). The gels were imaged using a standard flat bed gel imager and the amount of protein estimated by densiometry. The percent of protein eluted from the column at each concentration was determined and IC50 values were calculated from these estimates. Where necessary, the eluted proteins were cut out of the gel, and identified using mass spectral techniques.
These steps were repeated with each of the compounds of Formulas IV-X, MTX, and the c series derivative. The values obtained were then compared to those for DHFR.

Her2 = Her2 (Homo sapiens, UniProt P04626); experiment: Elution of Her2 from ATP-Sepharose column by compound (Proteome Mining), IC50 estimate; details: estimated from percent of protein eluted from ATP-Sepharose column, gel densitometry; read-out: Approximate IC50 for Her2
Sequence of Her2 (P04626 23-1255, species assumed): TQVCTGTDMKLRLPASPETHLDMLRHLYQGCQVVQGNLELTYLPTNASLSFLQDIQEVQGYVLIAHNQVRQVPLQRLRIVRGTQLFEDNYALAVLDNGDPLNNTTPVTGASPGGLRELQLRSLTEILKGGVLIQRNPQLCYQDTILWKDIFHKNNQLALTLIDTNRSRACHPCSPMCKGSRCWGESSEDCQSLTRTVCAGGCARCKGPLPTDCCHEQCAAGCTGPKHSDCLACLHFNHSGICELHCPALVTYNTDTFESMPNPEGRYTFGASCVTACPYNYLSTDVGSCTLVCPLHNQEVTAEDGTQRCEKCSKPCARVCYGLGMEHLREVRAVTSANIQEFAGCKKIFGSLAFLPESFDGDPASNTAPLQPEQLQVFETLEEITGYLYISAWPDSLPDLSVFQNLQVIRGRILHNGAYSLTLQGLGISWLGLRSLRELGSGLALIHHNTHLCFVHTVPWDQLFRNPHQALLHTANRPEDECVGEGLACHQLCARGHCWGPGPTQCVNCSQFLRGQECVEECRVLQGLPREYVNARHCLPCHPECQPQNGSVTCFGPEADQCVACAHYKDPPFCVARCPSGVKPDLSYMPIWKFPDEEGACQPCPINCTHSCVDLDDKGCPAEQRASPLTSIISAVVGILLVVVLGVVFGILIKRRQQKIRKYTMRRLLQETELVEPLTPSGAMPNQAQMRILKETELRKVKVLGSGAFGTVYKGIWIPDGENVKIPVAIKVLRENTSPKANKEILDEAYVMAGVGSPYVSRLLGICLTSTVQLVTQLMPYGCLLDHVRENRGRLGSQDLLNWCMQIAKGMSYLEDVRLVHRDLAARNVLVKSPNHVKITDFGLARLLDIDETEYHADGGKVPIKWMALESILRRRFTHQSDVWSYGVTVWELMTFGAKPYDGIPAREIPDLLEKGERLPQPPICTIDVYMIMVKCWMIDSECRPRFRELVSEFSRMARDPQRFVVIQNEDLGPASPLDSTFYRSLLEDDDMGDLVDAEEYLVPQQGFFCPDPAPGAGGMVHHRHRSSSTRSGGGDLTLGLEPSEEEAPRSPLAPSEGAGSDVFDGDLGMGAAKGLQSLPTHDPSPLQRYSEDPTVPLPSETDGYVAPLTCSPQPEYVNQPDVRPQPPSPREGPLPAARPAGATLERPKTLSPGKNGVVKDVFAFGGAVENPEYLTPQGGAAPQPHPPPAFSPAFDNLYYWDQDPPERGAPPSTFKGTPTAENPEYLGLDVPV
Description: as §1, with “A proteome containing a known quantity of Her2, EGFR, and B-Raf was run over an ATP-Sepharose™ column in order to bind all purine-binding proteins. […] The ATP-Sepharose™ was washed several times, and then eluted with the compound of Formula III. The experiment was run in duplicate at concentrations of 20 μM, 100 μM, and 500 μM of the compound of Formula III. The eluted fractions were run on a 1-dimensional SDS polyacrylamide gel. Gels” for “Gels”

B-Raf = B-Raf (Homo sapiens, UniProt P15056); experiment: Elution of B-Raf from ATP-Sepharose column by compound (Proteome Mining), IC50 estimate; details: estimated from percent of protein eluted from ATP-Sepharose column, gel densitometry; read-out: Approximate IC50 for B-Raf
Sequence of B-Raf (P15056 whole entry, species assumed): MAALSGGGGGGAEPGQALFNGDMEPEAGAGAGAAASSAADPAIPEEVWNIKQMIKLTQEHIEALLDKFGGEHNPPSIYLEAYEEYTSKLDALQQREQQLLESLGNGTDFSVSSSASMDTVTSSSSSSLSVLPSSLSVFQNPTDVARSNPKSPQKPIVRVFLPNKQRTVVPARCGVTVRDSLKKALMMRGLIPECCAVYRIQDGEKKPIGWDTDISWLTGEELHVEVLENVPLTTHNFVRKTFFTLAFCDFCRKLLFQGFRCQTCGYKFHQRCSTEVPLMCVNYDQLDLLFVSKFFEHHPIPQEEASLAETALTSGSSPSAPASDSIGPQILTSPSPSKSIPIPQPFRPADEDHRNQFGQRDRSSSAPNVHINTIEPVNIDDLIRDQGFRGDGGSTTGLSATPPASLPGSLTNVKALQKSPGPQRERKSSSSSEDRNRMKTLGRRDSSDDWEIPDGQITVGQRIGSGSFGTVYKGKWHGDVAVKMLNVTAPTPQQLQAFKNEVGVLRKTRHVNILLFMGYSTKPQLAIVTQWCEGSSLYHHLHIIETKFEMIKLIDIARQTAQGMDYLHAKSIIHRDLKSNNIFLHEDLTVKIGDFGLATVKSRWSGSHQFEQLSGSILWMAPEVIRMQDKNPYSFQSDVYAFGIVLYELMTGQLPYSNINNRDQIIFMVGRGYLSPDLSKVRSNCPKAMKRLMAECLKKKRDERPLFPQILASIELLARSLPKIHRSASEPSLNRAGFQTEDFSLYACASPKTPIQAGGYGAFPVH
Description: A proteome containing a known quantity of Her2, EGFR, and B-Raf was run over an ATP-Sepharose™ column in order to bind all purine-binding proteins. See, WO 00/63694 and U.S. Provisional Application No. 60/453,697 filed Jan. 22, 2003, each of which is incorporated by reference in its entirety. The ATP-Sepharose™ was washed several times, and then eluted with the compound of Formula III. The experiment was run in duplicate at concentrations of 20 μM, 100 μM, and 500 μM of the compound of Formula III. The eluted fractions were run on a 1-dimensional SDS polyacrylamide gel. Gels were stained with a fluorescent stain such as sypro ruby (a highly sensitive fluorescent protein stain that can readily detect less than 1 fmol of total protein, i.e., less than 0.04 ng for a 40 kDa protein). The gels were imaged using a standard flat bed gel imager and the amount of protein estimated by densiometry. The percent of protein eluted from the column at each concentration was determined and IC50 values were calculated from these estimates. Where necessary, the eluted proteins were cut out of the gel, and identified using mass spectral techniques.
These steps were repeated with each of the compounds of Formulas IV-X, MTX, and the c series derivative.

IC50 [1] [µM]	IC50 (Her2) [µM]	IC50 (B-Raf) [µM]	SMILES
3.8	0.9	5	C#CCN(Cc1cnc2nc(N)nc(N)c2n1)c1ccc(C(=O)NC(CCC(=O)O)C(=O)O)cc1C (stereo not shown) [Formula III, 2-{4-[(2,4-diamino-pteridin-6-ylmethyl)-prop-2-ynyl-amino]-3-methyl-benzoylamino}-pentanedioic acid]
7	7.5	–	C#CCN(Cc1cnc2nc(N)nc(N)c2n1)c1ccc(C(=O)NC(CCC(=O)O)C(=O)O)cc1OC(F)(F)F (stereo not shown) [Formula IX]
3.75	5	5	C#CCN(Cc1cnc2nc(N)nc(N)c2n1)c1ccc(C(=O)NC(CCC(=O)O)C(=O)O)cc1OC (stereo not shown) [Formula VIII]
3.5	5	–	Cc1cc(C(=O)NC(CCC(=O)O)C(=O)O)ccc1N(Cc1ccoc1)Cc1cnc2nc(N)nc(N)c2n1 (stereo not shown) [Formula VII]
